Measurements published in ChEMBL document CHEMBL3861954, “A novel bis-furan scaffold for transthyretin stabilization and amyloid inhibition” (Eur J Med Chem, 2016).
The source made the active and inactive calls. The calls are words filed in the database; no cut-off is given here.

Columns and labels:
[1] = Cytotoxicity against human HepG2 cells assessed as decrease in cell viability after 72 hrs by resazurin reduction assay; type: toxicity, cell-based; settings: read-out: ID50
Transthyretin [2] = target: T1, Transthyretin (Homo sapiens, UniProt P02766); experiment: Displacement of [125I]-T4 from wild type TTR in human plasma after 1 hr by PAGE analysis; type: cell-free
Transthyretin [3] = target: T1, Transthyretin; experiment: Stabilization of wild type TTR tetramer in human plasma assessed as tetramer to total protein ratio preincubated overnight at 4 degC followed by further incubation at room temperature for 1 hr in presence of 4M urea by isoelectric focusing densitometric analysis
[4] = test system: Transthyretin (Homo sapiens), P02766 [V50M]; experiment: Stabilization of TTR V30M mutant tetramer in human plasma assessed as tetramer to total protein ratio preincubated overnight at 4 degC followed by further incubation at room temperature for 1 hr in presence of 4M urea by isoelectric focusing densitometric analysis
Transthyretin [5] = target: T1, Transthyretin; experiment: (§1) Stabilization of recombinant human wild type TTR expressed in Escherichia coli BL21 (DE3) assessed as inhibition of amyloid beta formation by measuring turbidity preincubated for 30 mins followed by lowering pH from 7.2 to 4.4 measured after 72 hrs by microplate spectrophotometric method
Transthyretin [6] = target: T1, Transthyretin; experiment: Binding affinity to recombinant human wild type TTR expressed in Escherichia coli BL21 (DE3) assessed as dissociation constants for first binding site of TTR by isothermal titration calorimetric method
Transthyretin [7] = target: T1, Transthyretin; experiment: Binding affinity to recombinant human wild type TTR expressed in Escherichia coli BL21 (DE3) assessed as dissociation constants for second binding site of TTR by isothermal titration calorimetric method
Transthyretin [8] = target: T1, Transthyretin; experiment: as §1, with “turbidity at 0.5 to 2 times molar concentration” for “turbidity”

SMILES | CC50 at 72 h [1] [µM] | inhibition (Transthyretin [2]) | Ratio (Transthyretin [3]) | Ratio [4] | further results
Oc1c(Cl)cc(-c2cc(Cl)c(O)c(Cl)c2)cc1Cl | 60 |  |  |  | 
Cc1c(C(=O)O)coc1/C=C/c1ccc(Cl)o1 | 181 | Active | 0.961 | 0.481 | 
O=C(O)c1cc(-c2ccc(F)cc2F)cc(I)c1O |  | Active | 0.768 | 0.445 | 
O=C(O)c1ccc2nc(-c3cc(Cl)cc(Cl)c3)oc2c1 | 247 | Active |  |  | 
Cc1oc(/C=C/c2ccc(Cl)o2)cc1C(=O)O | 225 |  |  |  | IC50 (Transthyretin [5]): 2.49 µM; Kd (Transthyretin [6]): 0.0039 µM; Kd (Transthyretin [7]): 0.278 µM
N[C@@H](Cc1cc(I)c(Oc2cc(I)c(O)c(I)c2)c(I)c1)C(=O)O |  |  |  |  | inhibition (Transthyretin [8]): Active
